Molecular target: T1, FXR (Rattus norvegicus, UniProt Q62735)
T1 sequence (Q62735 1-469): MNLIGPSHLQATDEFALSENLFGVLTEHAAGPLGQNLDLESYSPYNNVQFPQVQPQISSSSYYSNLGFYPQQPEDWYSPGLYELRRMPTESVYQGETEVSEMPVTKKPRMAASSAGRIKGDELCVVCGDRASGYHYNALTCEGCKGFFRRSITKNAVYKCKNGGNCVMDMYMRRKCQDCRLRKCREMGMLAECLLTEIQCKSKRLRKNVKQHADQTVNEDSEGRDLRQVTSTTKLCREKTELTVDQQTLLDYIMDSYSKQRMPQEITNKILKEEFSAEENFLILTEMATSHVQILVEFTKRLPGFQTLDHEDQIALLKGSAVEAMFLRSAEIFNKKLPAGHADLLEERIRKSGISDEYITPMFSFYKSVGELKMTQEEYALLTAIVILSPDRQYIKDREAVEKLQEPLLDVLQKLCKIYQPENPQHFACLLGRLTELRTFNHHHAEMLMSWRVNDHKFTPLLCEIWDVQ
T1 sequence (P28700 1-467 partner): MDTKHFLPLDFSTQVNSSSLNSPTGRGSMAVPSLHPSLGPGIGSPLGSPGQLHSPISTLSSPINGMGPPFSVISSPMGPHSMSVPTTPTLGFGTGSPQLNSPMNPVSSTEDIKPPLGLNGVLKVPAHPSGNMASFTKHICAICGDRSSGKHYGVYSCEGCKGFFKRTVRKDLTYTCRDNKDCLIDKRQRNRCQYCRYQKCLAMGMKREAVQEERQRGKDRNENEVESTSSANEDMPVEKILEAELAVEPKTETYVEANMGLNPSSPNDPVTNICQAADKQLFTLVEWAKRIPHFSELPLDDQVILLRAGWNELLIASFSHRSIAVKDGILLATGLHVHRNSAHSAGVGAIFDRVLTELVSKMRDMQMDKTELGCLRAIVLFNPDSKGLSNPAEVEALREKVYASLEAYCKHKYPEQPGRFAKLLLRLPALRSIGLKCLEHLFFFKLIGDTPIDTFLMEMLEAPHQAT
Assay: cell-based
Settings: for FXR-dependent transcription, induction: 7.5 μM
Method: These experiments employed a mammalian cell culture system using Chinese hamster ovary cells (CHO) to evaluate the transcriptional function of Drosophila melanogaster EcR and USP using methods described previously (U.S. Patent Application Publication No: 2005/0049230; Henrich et al, 2003). Cells were seeded in 6-well polypropylene culture plates (Falcon) with 10^5 cells per well on the day prior to transfection. Transfection was subsequently performed using either calcium phosphate (Kitareewan et al., 1996, Mol. Biol. Cell, 7:1153-1196) or a GenePorter reagent (Gene Therapy Systems, Inc; San Diego, Calif.) following manufacturer's protocols. Each well received 1.25 μg of (EcRE)5-ΔMTV-CAT (five copies of the hsp27 EcRE inserted into an mouse mammary tumor virus (MTV) promoter upstream of the chloramphenicol acetyltransferase (CAT) gene) or (EcRE)5-ΔMTV-LUC (the same promoter attached to firefly luciferase), 1.25 μg of pCH111 (SV40 early promoter linked to the β-galactosidase gene) to normalize CAT activity, and 0.25 μg of each expression plasmid (EcR, FXR, RXR, USP) that was tested. The cells were incubated with plasmid DNA for seven hours and then washed with 1×PBS. Muristerone A (murA; Alexis Biochemicals) or 20-hydroxyecdysone (20E; Sigma) dissolved in ethanol to a concentration of 10 mM was diluted as necessary to the final assay concentration (FAC) in 2 ml of fresh incubation medium that was then applied to the cells. Similarly, JHIII (Sigma) was dissolved in dimethyl sulfoxide (DMSO) to a concentration of […] and diluted into the incubation medium to its final assay concentration (20, 40, 80, 160 μM). […] A corresponding volume of ethanol and DMSO were added to control cells for all experiments. For all experiments, the cells were allowed to incubate with the medium for 24 hours before collection and cell lysates were prepared by described methods (Kitareewan et al., 1996). Both β-galactosidase and CAT reporter activity were measured based on previously used methods (Kitareewan et al, 1996). Luciferase assays using luciferrin followed the specifications of the manufacturer.
Transcriptional activity, measured as ^14C-chloramphenicol counts (for measuring CAT activity) or relative luciferase activity (RLU) was quantified for each cell lysate. The counts were then normalized by adjusting for differences in β-galactosidase activity, since β-galactosidase expression is controlled by a constitutive promoter and provides an estimate of cell mass. Data were normalized as fold-induction based on differences in reporter gene activity between hormonally treated and control cells.
In these experiments, candidate juvenoids were tested for their ability to activate FXR mediated transcription by transfecting Chinese hamster ovary (CHO) cells using the FXR plasmid, mouse RXRα, and the ΔMTV-(EcRE)5-CAT reporter as described herein. An RXR-dependent CRBPII-CAT reporter plasmid was employed in parallel assays to discern activators specific for this receptor.

[1] = dose 20 μM, 1 = no increase over vehicle

Molecule: 5,11-dimethyltetrahydrochrysene
- FXR-dependent activity, induction (dose not stated): activated

Molecule: CCCCCc1cc(O)c2c(c1)OC(C)(C)[C@@H]1CC=C(C)C[C@@H]21 (single isomer, unassigned) [Δ^8-isomer]
- FXR-dependent CAT activity, induction (15 μM): not

Molecule: CC12CCC(CC1)C(C)(C)O2 [1,8-cineole]
- FXR-dependent activity, induction (800 μM): two-fold
- FXR ACTIVITY (fold-induction) (dose 400 μM): 2 fold-induction

Molecule: OCCc1ccccc1O [2-hydroxyphenethyl alcohol, 2-hydroxyphenethlyl alcohol]
- FXR-dependent activity, induction (400 μM): 3 fold

Molecule: C=C(C)CCc1cc(OC)c(OC)cc1O [3,4-dimethoxy-6-isopentenylphenol]
- FXR-dependent activity, induction (100 μM): 3 fold

Molecule: OCCc1cccc(O)c1 [3-hydroxyphenethyl alcohol, 3-hydroxyphenethlyl alcohol]
- FXR-dependent activity, induction (400 μM): 3 fold

Molecule: OCCc1ccc(O)cc1 [4-hydroxyphenethyl alcohol, 4-hydroxyphenethlyl alcohol]
- FXR-dependent activity, induction (400 μM): 3 fold

Molecule: COc1cc2ccc(=O)oc2cc1O [7-hydroxy-6-methoxycoumarin]
- FXR-dependent activity, induction (1 mM): ineffectiveness

Molecule: CC(C)CCC[C@@H](C)[C@H]1CC[C@H]2[C@@H]3C(=O)C=C4C[C@@H](O)CC[C@]4(C)[C@H]3CC[C@]12C [7-ketocholesterol]
- FXR-dependent transcription, induction: not

Molecule: COc1ccc2ccc(=O)oc2c1 [7-methoxycoumarin]
- FXR-dependent activity, induction (1 mM): 10 fold

Molecule: CC(C)CCC[C@@H](C)[C@H]1CC[C@H]2[C@@H]3[C@H](O)C=C4C[C@@H](O)CC[C@]4(C)[C@H]3CC[C@]12C [7α-hydroxycholesterol]
- FXR-dependent transcription, induction: not

Molecule: Nc1ncnc2c1nc(Br)n2[C@@H]1O[C@@H]2COP(=O)(O)O[C@H]2[C@H]1O [8-Br-cAMP]
- FXR-dependent activity, induction (1 mM): 4 fold

Molecule: COc1c2occc2cc2ccc(=O)oc12 [8-methoxypsoralen]
- FXR-dependent CAT activity, induction (50 μM): inactive

Molecule: CC(C)=CCc1c(O)cc(O)c2c1O[C@H](c1ccc(O)cc1)CC2=O [8-prenylnaringenin]
- FXR-dependent CAT activity, induction (20 μM): 38 fold
- FXR ACTIVITY (fold-induction) [1]: 38 fold-induction

Molecule: CC(C)CCC[C@](C)(O)[C@H]1CC[C@H]2[C@@H]3CC=C4C[C@@H](O)CC[C@]4(C)[C@H]3CC[C@@]21C [20α-hydroxycholesterol]
- FXR-dependent transcription, induction: 10 fold

Molecule: CC(C)CC[C@H](O)[C@@H](C)[C@H]1CC[C@H]2[C@@H]3CC=C4C[C@@H](O)CC[C@]4(C)[C@H]3CC[C@]12C [22S-hydroxycholesterol]
- FXR-dependent transcription, induction: not

Molecule: COc1cc(O)c(CC=C(C)C)c2c1C(=O)CC(c1ccc(O)cc1)O2 (stereo not shown) [Isoxanthohumol]
- FXR-dependent CAT activity, induction (20 μM): 9 fold
- FXR ACTIVITY (fold-induction) [1]: 9 fold-induction

Molecule: CC(C)=CCC1=C(O)C(C(=O)CC(C)C)=C(O)C(CC=C(C)C)(CC=C(C)C)C1=O [Lupulone]
- FXR-dependent CAT activity, induction (20 μM): inert
- FXR ACTIVITY (fold-induction) [1]: 1 fold-induction

Molecule: CC1=C[C@H]2[C@@]3(O)[C@H](C)[C@@H](O)[C@]4(O)[C@H]([C@@H]3C=C(CO)C[C@]2(O)C1=O)C4(C)C [Phorbol]
- FXR-dependent activity, induction (dose not stated): inactive

Molecule: CCCCCc1cc(O)c2c(c1)OC(C)(C)[C@@H]1CCC(C)=C[C@@H]21 [THC, 1-trans-Δ^9-tetrahydrocannabinol]
- FXR-dependent CAT activity, induction (15 μM): 5 fold

Molecule: COC1=C(OC)C(=O)C(CC=C(C)C)=C(C)C1=O [U1, Ubiquinone-1]
- inhibition of farnesol-induced FXR-dependent activity (10 μM): completely inhibited

Molecule: COC1=C(OC)C(=O)C(C/C=C(\C)CC/C=C(\C)CCC=C(C)C)=C(C)C1=O [U3]
- FXR-dependent activity, induction (dose not stated): 5 fold

Molecule: COC1=C(OC)C(=O)C(C/C=C(\C)CC/C=C(\C)CC/C=C(\C)CCC=C(C)C)=C(C)C1=O [U4]
- FXR-dependent activity, induction (dose not stated): 3 fold

Molecule: COC1=C(OC)C(=O)C(C/C=C(\C)CC/C=C(\C)CC/C=C(\C)CC/C=C(\C)CC/C=C(\C)CCC=C(C)C)=C(C)C1=O [U6]
- FXR-dependent activity, induction (dose not stated): inactive

Molecule: COC1=C(OC)C(=O)C(C/C=C(\C)CC/C=C(\C)CC/C=C(\C)CC/C=C(\C)CC/C=C(\C)CC/C=C(\C)CC/C=C(\C)CCC=C(C)C)=C(C)C1=O [U8]
- FXR-dependent activity, induction (dose not stated): inactive

Molecule: COC1=C(OC)C(=O)C(C/C=C(\C)CC/C=C(\C)CC/C=C(\C)CC/C=C(\C)CC/C=C(\C)CC/C=C(\C)CC/C=C(\C)CC/C=C(\C)CCC=C(C)C)=C(C)C1=O [U9]
- FXR-dependent activity, induction (dose not stated): inactive

Molecule: COC1=C(OC)C(=O)C(C/C=C(\C)CC/C=C(\C)CC/C=C(\C)CC/C=C(\C)CC/C=C(\C)CC/C=C(\C)CC/C=C(\C)CC/C=C(\C)CC/C=C(\C)CCC=C(C)C)=C(C)C1=O [U10]
- FXR-dependent activity, induction (dose not stated): inactive

Molecule: COc1cc(O)c(CC=C(C)C)c(O)c1C(=O)/C=C/c1ccc(O)cc1 [Xanthohumol]
- FXR ACTIVITY (fold-induction) (dose not given, 1 = no increase over vehicle): 1 fold-induction
- FXR-dependent activity, induction (dose not stated): not activated

Molecule: CCOC(=O)C=C(C)CCCC(C)(Cl)CCCC(C)(C)Cl (stereo not shown) [ZR232, ethyl ester of 7,11-dichloro-2-ene farnesoic acid]
- FXR-dependent CAT activity, induction (50 μM): 5 fold

Molecule: Nc1ncnc2nc[nH]c12 [adenine]
- FXR-dependent activity, induction (dose not stated): ineffective

Molecule: C=CCc1cc(OC)c2c(c1OC)OCO2 [apiole]
- FXR-dependent CAT activity, induction (250 μM): 4 fold

Molecule: CC(C)=CCC/C(C)=C/COc1c2ccoc2cc2oc(=O)ccc12 [bergamotin]
- FXR-dependent activity, induction (25 μM): 8 fold
- FXR ACTIVITY (fold-induction) (dose 25 μM): 10 fold-induction

Molecule: C=CCC1=C(C)C(OC(=O)[C@@H]2[C@@H](C=C(C)C)C2(C)C)CC1=O (stereo partly shown) [bioallethrin]
- FXR-dependent activity, induction (25 μM): 14 fold

Molecule: C[C@@]12CCc3occc3[C@H]1CC[C@@]13C[C@@H](CC[C@H]12)[C@@](O)(CO)C3 [cafestol]
- FXR ACTIVITY (fold-induction) [1]: 12 fold-induction

Molecule: O=C(O)/C=C/c1ccc(O)c(O)c1 [caffeic acid]
- FXR-dependent CAT activity, induction (250 μM): inactive
- FXR ACTIVITY (fold-induction) (dose 100 μM, 1 = no increase over vehicle): 1 fold-induction

Molecule: CCCCCc1cc(O)c2c(c1)OC(C)(C)c1ccc(C)cc1-2 [cannabinol]
- FXR-dependent CAT activity, induction (15 μM): not

Molecule: CNC(=O)Oc1cccc2ccccc12 [carbaryl]
- FXR-dependent activity, induction (dose not stated): inactive

Molecule: ClC1=C(Cl)C2(Cl)C3C(Cl)C(Cl)CC3C1(Cl)C2(Cl)Cl (stereo not shown) [chlordane]
- FXR-dependent CAT activity, induction (5 μM): 7 fold
- FXR ACTIVITY (fold-induction) (dose 5 μM): 7 fold-induction

Molecule: CCOCn1c(-c2ccc(Cl)cc2)c(C#N)c(Br)c1C(F)(F)F [chlorfenapyr]
- FXR-dependent activity, induction (25 μM): 10 fold

Molecule: CC(C)(O)/C=C/C(=O)[C@](C)(O)[C@H]1[C@H](O)C[C@@]2(C)[C@@H]3CC=C4[C@@H](C[C@H](O)C(=O)C4(C)C)[C@]3(C)C(=O)C[C@]12C [cucurbitacin D]
- suppression of FXR-dependent activity promoted by CDCA (1 μM cucurbitacin D, 40 μM CDCA): 58 fold
- suppression of FXR-dependent activity promoted by JH III (1 μM cucurbitacin D, 40 μM JH III): 7 fold
